Experimental data published in paper PMC6120666 (The EMBO Journal, 2018).

Tests used:
Assay in all cases: Drug affinity chromatography with c-ponatinib and LC-MS/MS (ponatinib interactome)
Assay type in all cases: binding
[1] = target: T1, proteins of U2OS cell lysate (Homo sapiens, UniProt P62820); conditions: RAB1A;RAB1B, Ras-related protein Rab-1A
T1 construct: Proteins enriched by c-ponatinib from U2OS cell lysate; endogenous in cells; host or cells: U2OS cell lysate
Outline: (§1)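 Proteins were identified by nano-UPLC–MS/MS after elution with formic acid and trypsin digestion. They were captured from U2OS lysate (2 mg protein per pulldown, NP-40 buffer) on amine-coupled NHS beads during a 2 h incubation at 4 °C.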

[2] = target: T2, proteins of U2OS cell lysate (Homo sapiens, UniProt Q13418); conditions: ILK, Integrin-linked protein kinase
T2 construct: Proteins enriched by c-ponatinib from U2OS cell lysate; endogenous in cells; host or cells: U2OS cell lysate
Outline: as §1

[3] = target: T3, proteins of U2OS cell lysate (Homo sapiens, UniProt P06748); conditions: NPM1, Nucleophosmin
T3 construct: Proteins enriched by c-ponatinib from U2OS cell lysate; endogenous in cells; host or cells: U2OS cell lysate
Outline: as §1

[4] = target: T4, proteins of U2OS cell lysate (Homo sapiens, UniProt P05141); conditions: SLC25A5;SLC25A6;SLC25A4, ADP/ATP translocase 2
T4 construct: Proteins enriched by c-ponatinib from U2OS cell lysate; endogenous in cells; host or cells: U2OS cell lysate
Outline: as §1

[5] = target: T5, proteins of U2OS cell lysate (Homo sapiens, UniProt P35606); conditions: COPB2, Coatomer subunit beta
T5 construct: Proteins enriched by c-ponatinib from U2OS cell lysate; endogenous in cells; host or cells: U2OS cell lysate
Outline: as §1

[6] = target: T6, proteins of U2OS cell lysate (Homo sapiens, UniProt P20700); conditions: LMNB1, Lamin-B1
T6 construct: Proteins enriched by c-ponatinib from U2OS cell lysate; endogenous in cells; host or cells: U2OS cell lysate
Outline: as §1

[7] = target: T7, proteins of U2OS cell lysate (Homo sapiens, UniProt P51149); conditions: RAB7A, Ras-related protein Rab-7a
T7 construct: Proteins enriched by c-ponatinib from U2OS cell lysate; endogenous in cells; host or cells: U2OS cell lysate
Outline: as §1

[8] = target: T8, proteins of U2OS cell lysate (Homo sapiens, UniProt A1L0T0); conditions: ILVBL, Acetolactate synthase-like protein
T8 construct: Proteins enriched by c-ponatinib from U2OS cell lysate; endogenous in cells; host or cells: U2OS cell lysate
Outline: as §1

[9] = target: T9, proteins of U2OS cell lysate (Homo sapiens, UniProt P07355); conditions: ANXA2;ANXA2P2, Annexin A2
T9 construct: Proteins enriched by c-ponatinib from U2OS cell lysate; endogenous in cells; host or cells: U2OS cell lysate
Outline: as §1

[10] = target: T10, proteins of U2OS cell lysate (Homo sapiens, UniProt Q9UIA9); conditions: XPO7, Exportin-7
T10 construct: Proteins enriched by c-ponatinib from U2OS cell lysate; endogenous in cells; host or cells: U2OS cell lysate
Outline: as §1

[11] = target: T11, proteins of U2OS cell lysate (Homo sapiens, UniProt P0DMV9); conditions: HSPA1B, Heat shock 70 kDa protein 1B
T11 construct: Proteins enriched by c-ponatinib from U2OS cell lysate; endogenous in cells; host or cells: U2OS cell lysate
Outline: as §1

[12] = target: T12, proteins of U2OS cell lysate (Homo sapiens, UniProt P08195); conditions: SLC3A2, 4F2 cell-surface antigen heavy chain
T12 construct: Proteins enriched by c-ponatinib from U2OS cell lysate; endogenous in cells; host or cells: U2OS cell lysate
Outline: as §1

[13] = target: T13, proteins of U2OS cell lysate (Homo sapiens, UniProt P48047); conditions: ATP5O, ATP synthase subunit O, mitochondrial
T13 construct: Proteins enriched by c-ponatinib from U2OS cell lysate; endogenous in cells; host or cells: U2OS cell lysate
Outline: as §1

[14] = target: T14, proteins of U2OS cell lysate (Homo sapiens, UniProt Q9UHD8); conditions: SEPT9, Septin-9
T14 construct: Proteins enriched by c-ponatinib from U2OS cell lysate; endogenous in cells; host or cells: U2OS cell lysate
Outline: as §1

[15] = target: T15, proteins of U2OS cell lysate (Homo sapiens, UniProt P62241); conditions: RPS8, 40S ribosomal protein S8
T15 construct: Proteins enriched by c-ponatinib from U2OS cell lysate; endogenous in cells; host or cells: U2OS cell lysate
Outline: as §1

[16] = target: T16, proteins of U2OS cell lysate (Homo sapiens, UniProt P04843); conditions: RPN1, Dolichyl-diphosphooligosaccharide--protein glycosyltransferase subunit 1
T16 construct: Proteins enriched by c-ponatinib from U2OS cell lysate; endogenous in cells; host or cells: U2OS cell lysate
Outline: as §1

[17] = target: T17, proteins of U2OS cell lysate (Homo sapiens, UniProt P22234); conditions: PAICS, Multifunctional protein ADE2
T17 construct: Proteins enriched by c-ponatinib from U2OS cell lysate; endogenous in cells; host or cells: U2OS cell lysate
Outline: as §1

[18] = target: T18, proteins of U2OS cell lysate (Homo sapiens, UniProt Q9UNM6); conditions: captured protein PSMD13, Rank 204
T18 construct: Proteins enriched by c-ponatinib from U2OS cell lysate; endogenous in cells; host or cells: U2OS cell lysate
Outline: as §1

[19] = target: T19, proteins of U2OS cell lysate (Homo sapiens, UniProt P45880); conditions: captured protein VDAC2, Rank 163
T19 construct: Proteins enriched by c-ponatinib from U2OS cell lysate; endogenous in cells; host or cells: U2OS cell lysate
Outline: as §1

T17 sequence (P22234 whole entry): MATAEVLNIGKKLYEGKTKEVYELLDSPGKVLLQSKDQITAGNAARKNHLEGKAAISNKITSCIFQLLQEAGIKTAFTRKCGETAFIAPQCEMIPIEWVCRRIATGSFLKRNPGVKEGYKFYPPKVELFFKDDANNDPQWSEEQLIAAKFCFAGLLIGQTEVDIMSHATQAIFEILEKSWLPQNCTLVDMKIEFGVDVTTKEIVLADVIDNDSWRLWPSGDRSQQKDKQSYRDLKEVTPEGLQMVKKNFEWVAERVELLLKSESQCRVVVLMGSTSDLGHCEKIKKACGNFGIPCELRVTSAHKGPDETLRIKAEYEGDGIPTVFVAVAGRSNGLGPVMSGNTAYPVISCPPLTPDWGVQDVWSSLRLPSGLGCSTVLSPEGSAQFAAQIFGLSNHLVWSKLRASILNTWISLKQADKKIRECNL
T4 sequence (P05141 whole entry): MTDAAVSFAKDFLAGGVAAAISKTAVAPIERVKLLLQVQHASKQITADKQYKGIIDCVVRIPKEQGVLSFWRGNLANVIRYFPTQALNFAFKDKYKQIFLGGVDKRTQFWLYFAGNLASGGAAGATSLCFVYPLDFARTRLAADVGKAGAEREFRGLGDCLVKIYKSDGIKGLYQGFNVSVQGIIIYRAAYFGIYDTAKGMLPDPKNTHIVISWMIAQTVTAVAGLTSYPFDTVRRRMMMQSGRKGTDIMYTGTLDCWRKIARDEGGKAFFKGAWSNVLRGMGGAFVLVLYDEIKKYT
T16 sequence (P04843 24-607): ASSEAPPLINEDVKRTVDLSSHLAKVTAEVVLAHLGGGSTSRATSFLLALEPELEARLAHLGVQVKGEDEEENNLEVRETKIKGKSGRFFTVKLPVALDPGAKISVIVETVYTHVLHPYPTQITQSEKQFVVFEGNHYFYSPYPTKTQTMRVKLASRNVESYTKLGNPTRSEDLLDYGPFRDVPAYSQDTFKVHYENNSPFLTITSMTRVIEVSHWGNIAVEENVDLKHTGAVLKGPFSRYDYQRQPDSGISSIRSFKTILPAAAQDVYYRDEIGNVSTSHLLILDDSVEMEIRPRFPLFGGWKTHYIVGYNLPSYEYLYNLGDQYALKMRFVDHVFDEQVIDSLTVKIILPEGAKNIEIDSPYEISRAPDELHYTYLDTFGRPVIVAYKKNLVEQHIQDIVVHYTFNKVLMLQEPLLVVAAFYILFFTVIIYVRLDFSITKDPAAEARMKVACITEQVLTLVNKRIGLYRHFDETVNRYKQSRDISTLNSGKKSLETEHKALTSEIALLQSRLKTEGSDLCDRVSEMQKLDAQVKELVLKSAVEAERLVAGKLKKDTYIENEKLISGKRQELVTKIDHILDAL
T14 sequence (Q9UHD8 whole entry): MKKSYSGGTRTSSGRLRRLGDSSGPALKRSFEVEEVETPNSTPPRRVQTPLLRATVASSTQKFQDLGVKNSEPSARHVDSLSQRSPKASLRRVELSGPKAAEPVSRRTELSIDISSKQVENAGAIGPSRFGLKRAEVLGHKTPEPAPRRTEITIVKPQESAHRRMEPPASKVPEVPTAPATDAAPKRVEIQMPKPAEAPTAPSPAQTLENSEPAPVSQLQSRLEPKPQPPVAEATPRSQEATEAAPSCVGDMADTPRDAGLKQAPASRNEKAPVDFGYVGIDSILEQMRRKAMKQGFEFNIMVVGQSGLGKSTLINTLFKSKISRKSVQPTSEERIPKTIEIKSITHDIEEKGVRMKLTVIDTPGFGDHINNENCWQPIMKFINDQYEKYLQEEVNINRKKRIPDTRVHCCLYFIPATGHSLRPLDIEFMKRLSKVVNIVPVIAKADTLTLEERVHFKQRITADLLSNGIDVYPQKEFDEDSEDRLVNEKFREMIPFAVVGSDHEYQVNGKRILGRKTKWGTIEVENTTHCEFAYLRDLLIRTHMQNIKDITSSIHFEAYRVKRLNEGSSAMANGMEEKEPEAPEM
T11 sequence (P0DMV9 whole entry): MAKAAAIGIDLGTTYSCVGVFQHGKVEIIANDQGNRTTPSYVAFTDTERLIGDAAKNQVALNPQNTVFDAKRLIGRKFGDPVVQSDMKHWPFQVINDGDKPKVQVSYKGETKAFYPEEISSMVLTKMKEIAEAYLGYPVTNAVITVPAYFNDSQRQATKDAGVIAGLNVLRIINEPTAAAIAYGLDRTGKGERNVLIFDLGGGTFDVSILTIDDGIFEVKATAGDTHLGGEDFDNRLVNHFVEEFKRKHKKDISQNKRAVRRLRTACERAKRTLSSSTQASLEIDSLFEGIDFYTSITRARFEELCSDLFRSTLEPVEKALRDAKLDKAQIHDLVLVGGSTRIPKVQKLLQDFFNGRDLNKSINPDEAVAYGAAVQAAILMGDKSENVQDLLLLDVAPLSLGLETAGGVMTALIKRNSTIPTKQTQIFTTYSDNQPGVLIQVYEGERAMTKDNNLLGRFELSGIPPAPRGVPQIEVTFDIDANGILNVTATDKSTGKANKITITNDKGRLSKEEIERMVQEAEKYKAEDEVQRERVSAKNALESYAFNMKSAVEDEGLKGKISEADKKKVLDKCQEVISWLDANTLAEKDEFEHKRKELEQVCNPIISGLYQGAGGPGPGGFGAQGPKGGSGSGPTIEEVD
T18 sequence (Q9UNM6 whole entry): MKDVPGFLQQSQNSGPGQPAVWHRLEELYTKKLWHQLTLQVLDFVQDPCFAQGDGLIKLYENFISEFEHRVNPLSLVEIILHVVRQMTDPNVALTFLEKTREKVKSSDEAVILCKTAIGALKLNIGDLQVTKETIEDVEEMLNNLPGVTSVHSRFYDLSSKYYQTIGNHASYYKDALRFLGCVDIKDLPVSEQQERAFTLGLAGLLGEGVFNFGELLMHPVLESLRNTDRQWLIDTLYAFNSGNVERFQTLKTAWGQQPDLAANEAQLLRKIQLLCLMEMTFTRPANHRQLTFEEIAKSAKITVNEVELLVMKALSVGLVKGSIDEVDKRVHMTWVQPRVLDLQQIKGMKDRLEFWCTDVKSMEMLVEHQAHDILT
T6 sequence (P20700 whole entry): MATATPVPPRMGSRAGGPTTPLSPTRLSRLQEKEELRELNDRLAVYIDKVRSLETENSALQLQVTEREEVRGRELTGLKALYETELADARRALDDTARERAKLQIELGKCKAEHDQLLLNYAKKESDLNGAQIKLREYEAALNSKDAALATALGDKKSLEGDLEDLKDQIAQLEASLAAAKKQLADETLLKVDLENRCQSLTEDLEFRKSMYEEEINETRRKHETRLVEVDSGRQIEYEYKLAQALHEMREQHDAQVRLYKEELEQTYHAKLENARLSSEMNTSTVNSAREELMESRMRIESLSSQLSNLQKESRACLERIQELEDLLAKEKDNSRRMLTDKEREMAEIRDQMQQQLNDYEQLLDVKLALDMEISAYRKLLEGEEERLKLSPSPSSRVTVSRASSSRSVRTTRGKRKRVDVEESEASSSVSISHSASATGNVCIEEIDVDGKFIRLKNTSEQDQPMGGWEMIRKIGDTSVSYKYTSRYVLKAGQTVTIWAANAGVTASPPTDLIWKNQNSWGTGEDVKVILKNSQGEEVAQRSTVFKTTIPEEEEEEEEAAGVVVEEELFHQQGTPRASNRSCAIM
T1 sequence (P62820 whole entry): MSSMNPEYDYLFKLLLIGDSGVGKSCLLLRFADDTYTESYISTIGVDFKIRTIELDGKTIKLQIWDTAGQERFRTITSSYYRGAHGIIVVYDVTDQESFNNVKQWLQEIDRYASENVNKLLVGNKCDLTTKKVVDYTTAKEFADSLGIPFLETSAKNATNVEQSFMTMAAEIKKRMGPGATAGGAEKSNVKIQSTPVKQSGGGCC
T5 sequence (P35606 whole entry): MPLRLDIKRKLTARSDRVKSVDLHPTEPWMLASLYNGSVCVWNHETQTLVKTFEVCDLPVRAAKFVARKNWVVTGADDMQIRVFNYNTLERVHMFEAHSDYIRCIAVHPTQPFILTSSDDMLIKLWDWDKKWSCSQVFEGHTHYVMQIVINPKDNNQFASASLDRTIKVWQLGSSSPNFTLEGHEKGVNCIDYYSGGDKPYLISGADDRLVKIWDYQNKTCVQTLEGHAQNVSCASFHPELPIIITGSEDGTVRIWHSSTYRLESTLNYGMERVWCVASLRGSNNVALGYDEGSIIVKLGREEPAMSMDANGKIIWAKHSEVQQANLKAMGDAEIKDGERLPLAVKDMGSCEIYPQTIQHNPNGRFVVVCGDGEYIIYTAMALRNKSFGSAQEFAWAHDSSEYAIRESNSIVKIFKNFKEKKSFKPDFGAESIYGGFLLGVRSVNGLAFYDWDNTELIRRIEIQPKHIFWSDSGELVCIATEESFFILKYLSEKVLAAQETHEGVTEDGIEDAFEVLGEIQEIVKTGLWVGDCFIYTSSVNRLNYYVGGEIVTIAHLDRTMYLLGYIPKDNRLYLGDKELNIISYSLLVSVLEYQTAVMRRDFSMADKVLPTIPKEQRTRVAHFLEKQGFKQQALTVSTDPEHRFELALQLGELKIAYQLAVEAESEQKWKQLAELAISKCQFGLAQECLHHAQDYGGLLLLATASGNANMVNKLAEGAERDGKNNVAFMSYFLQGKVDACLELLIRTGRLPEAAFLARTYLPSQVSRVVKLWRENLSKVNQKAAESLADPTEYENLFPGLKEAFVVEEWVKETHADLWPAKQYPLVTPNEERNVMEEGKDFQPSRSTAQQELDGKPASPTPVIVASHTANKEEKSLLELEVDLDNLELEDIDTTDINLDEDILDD
T19 sequence (P45880 whole entry): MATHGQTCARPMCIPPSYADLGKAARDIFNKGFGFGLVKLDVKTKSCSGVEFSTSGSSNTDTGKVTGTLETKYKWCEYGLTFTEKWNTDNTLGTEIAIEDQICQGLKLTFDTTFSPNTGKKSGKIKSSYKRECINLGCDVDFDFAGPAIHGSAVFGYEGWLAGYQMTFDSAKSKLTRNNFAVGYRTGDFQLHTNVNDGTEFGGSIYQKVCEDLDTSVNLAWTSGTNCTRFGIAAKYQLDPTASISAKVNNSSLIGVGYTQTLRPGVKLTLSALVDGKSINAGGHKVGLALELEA

Row | SMILES | Average LFQ PON_WT [1] | Average LFQ PON_WT [2] | Average LFQ PON_WT [3] | Average LFQ PON_WT [4] | Average LFQ PON_WT [5] | Average LFQ PON_WT [6] | Average LFQ PON_WT [7] | Average LFQ PON_WT [8] | Average LFQ PON_WT [9] | Average LFQ PON_WT [10] | Average LFQ PON_WT [11] | Average LFQ PON_WT [12] | Average LFQ PON_WT [13] | Average LFQ PON_WT [14] | Average LFQ PON_WT [15] | Average LFQ PON_WT [16] | Average LFQ PON_WT [17] | Average LFQ intensity [18] | Average LFQ intensity [19]
1 | Cc1ccc(C(=O)Nc2ccc(CN3CCN(C)CC3)c(C(F)(F)F)c2)cc1C#Cc1cnc2cccnn12 [PON] | 23.3468 | 21.0026 | 21.1903 | 25.3771 | 21.0921 | 25.3205 | 20.9612 | 23.3851 | 23.7363 | 20.002 | 24.1054 | 18.7801 | 24.0207 | 23.3795 | 19.8524 | 23.8993 | 21.2772 | – | –
2 | Cc1ccc(C(=O)Nc2ccc(CN3CCN(CCCN)CC3)c(C(F)(F)F)c2)cc1C#Cc1cnc2cccnn12 [c-ponatinib, reference compound] | – | – | – | – | – | – | – | – | – | – | – | – | – | – | – | – | – | 21.7826 | 22.3592
